In patent publication US8524455B2, “Methods and compositions related to TR4 ligand” (University of Rochester, priority 2009, dated 2013):

How the values were obtained:
PPARγ/RXR = molecular target: T1, PPARγ/RXR (Homo sapiens, UniProt P37231); assay: CD36-luc luciferase reporter assay, PPARγ/RXR co-transfected into CV-1 cells; type: cell-based; settings: 24 h
T1 construct: expressed in transfected cells; host or cells: CV-1
T1 sequence (P37231 29-505 limits assumed): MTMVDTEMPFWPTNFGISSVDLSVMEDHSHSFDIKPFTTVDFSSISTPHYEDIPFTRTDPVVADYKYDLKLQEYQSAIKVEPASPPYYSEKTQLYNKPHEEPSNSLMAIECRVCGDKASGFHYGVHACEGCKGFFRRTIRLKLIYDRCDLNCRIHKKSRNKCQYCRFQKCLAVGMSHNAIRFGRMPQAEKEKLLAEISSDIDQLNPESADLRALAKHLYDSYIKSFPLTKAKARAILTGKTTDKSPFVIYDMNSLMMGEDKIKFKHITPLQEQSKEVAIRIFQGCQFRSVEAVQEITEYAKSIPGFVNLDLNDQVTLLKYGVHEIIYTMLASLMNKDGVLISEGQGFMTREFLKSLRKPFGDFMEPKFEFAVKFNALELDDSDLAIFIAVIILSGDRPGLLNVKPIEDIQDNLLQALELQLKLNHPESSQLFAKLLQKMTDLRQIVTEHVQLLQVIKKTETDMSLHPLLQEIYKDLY
T1 sequence (P19793 1-462 partner): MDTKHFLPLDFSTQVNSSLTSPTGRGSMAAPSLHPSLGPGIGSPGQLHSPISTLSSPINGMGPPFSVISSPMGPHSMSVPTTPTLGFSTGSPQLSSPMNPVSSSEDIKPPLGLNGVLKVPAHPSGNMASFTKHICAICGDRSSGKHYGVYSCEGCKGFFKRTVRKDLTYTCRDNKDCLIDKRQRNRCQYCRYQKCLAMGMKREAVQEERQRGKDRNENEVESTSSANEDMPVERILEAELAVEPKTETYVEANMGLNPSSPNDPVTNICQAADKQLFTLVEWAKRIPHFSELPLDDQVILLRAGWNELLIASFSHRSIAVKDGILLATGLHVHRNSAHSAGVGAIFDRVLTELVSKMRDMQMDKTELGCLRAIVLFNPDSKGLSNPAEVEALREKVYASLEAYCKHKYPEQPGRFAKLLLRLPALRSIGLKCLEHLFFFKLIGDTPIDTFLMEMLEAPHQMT

TR4 [1] = molecular target: T2, TR4 (Homo sapiens, UniProt P49116); assay: CD36-luc luciferase reporter assay, TR4 co-transfected into CV-1 cells; type: cell-based; parameters: pCMX-TR4 plasmids consist of the full length human TR4 gene subcloned into pCMX vector; expressed in transfected cells; host or cells: CV-1; settings: 24 h
T2 sequence (P49116 1-615 isoform P49116-2): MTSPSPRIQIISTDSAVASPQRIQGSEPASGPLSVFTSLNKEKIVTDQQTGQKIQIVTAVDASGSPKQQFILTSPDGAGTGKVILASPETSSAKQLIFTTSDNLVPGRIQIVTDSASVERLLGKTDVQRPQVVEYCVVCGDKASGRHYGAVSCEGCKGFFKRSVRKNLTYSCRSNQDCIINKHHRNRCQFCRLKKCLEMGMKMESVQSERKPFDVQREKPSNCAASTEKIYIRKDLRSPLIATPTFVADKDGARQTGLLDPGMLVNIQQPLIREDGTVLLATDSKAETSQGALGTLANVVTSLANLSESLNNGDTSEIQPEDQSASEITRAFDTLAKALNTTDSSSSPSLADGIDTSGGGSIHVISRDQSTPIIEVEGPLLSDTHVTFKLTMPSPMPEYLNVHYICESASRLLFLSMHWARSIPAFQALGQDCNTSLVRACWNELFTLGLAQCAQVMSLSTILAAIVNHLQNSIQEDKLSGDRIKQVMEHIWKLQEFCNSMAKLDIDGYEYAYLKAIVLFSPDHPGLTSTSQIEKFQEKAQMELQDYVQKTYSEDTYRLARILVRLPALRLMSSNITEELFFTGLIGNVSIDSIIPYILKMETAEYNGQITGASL
Method: After 24 h, cells were harvested for Luciferase activity. The relative luciferase activity was calculated while setting pCMX-TR4 in vehicle control as 1. (FIG. 6B) Protease protective peptide mapping were analyzed in liganded-PPARγ and TR4. […] The reaction was stopped by adding 2×SDS-sample buffer. The protease digestion pattern was resolved by gel electrophoresis in 12.5% (for PPARγ), and 16% (for TR4) SDS-PAGE. […] After 24 h, cells were harvested for Luciferase activity. The relative luciferase activity was calculated while setting pCMX-TR4 in vehicle control as 1.
Mouse macrophage RAW 264.7 cells, obtained from ATCC, were cultured in DMEM medium supplemented with 8% fetal bovine serum and 100 µg/ml penicillin-streptomycin and maintained on the petri-dishes. […] After 24 h, cells were harvested for luciferase assays.

TR4 [2] = molecular target: T2, TR4; assay: Limited proteolysis (protease protective peptide mapping) of [35S]-TR4; type: binding; parameters: pCMX-TR4 plasmids consist of the full length human TR4 gene subcloned into pCMX vector; expressed in transfected cells; host or cells: H1299; settings: incubated 15 min, trypsin 0.25 and 2.5 g/ml 10 min; compared to DMSO control
Method: (FIG. 6A) PUFAs metabolites induced PPAR- and TR4-mediated CD36 activity. […] After 24 h, cells were harvested for Luciferase activity. The relative luciferase activity was calculated while setting pCMX-TR4 in vehicle control as 1. (FIG. 6B) Protease protective peptide mapping were analyzed in liganded-PPARγ and TR4. […] The reaction was stopped by adding 2×SDS-sample buffer. The protease digestion pattern was resolved by gel electrophoresis in 12.5% (for PPARγ), and 16% (for TR4) SDS-PAGE. […] After 24 h, cells were harvested for Luciferase activity. The relative luciferase activity was calculated while setting pCMX-TR4 in vehicle control as 1.

[3] = 1 and 20 µM in DMSO, compared with AA and EPA
[4] = 1, 10, 50, 100 and 250 µM in BSA

Row | SMILES | PPAR/RXR-mediated CD36 expression (CD36-luc luciferase activity) (PPARγ/RXR; [3]) | TR4-mediated CD36 expression (CD36-luc luciferase activity) (TR4 [1]; [3]) | Protease digestion pattern of ligand-bound TR4 (TR4 [2]) | PPAR/RXR-mediated CD36 expression (CD36-luc luciferase activity) (PPARγ/RXR; [4]) | TR4-mediated CD36 expression (CD36-luc luciferase activity) (TR4 [1]; [4])
1 | CCCCCC(O)/C=C/C=C\CCCCCCCC(=O)O (centres unmarked) [13-HODE] | much better induction | much better induction | several changed proteolysis resisting fragments | – | –
2 | CCCCC[C@H](O)/C=C/C=C\C/C=C\C/C=C\CCCC(=O)O [15-HETE] | much better induction | much better induction | several changed proteolysis resisting fragments | – | –
3 | CCCCC/C=C\C/C=C\C/C=C\C/C=C\CCCC(=O)O [AA, arachidonic acid] | – | – | – | mildly induced | mildly induced
